One data set concerns the target T1, TDP2 (Homo sapiens, UniProt O95551).
T1 construct: His-tag (N); made in house; host or cells: E. coli BL21 (DE3)
T1 sequence (O95551 1-362): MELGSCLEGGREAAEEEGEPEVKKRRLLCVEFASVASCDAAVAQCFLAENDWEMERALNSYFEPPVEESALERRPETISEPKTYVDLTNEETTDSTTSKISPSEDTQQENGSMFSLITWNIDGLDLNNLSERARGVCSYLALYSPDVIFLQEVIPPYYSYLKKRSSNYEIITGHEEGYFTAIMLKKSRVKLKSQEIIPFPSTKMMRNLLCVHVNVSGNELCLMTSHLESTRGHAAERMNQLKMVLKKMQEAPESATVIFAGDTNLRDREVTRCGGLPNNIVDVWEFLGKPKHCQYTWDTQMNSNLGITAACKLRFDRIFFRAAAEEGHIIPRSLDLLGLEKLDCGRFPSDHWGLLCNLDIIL
As to the kind of experiment: Gel-based TDP2 activity assay. The format is biochemical. Here is the method: To study the ability of the investigated compounds to inhibit TDP2 activity, we separated the TDP2 reaction products under denaturing conditions in polyacrylamide gel (PAGE). We tested the ability of TDP2 to eliminate tyrosine residues from the 5’ end of the oligonucleotide substrate in the absence and presence of TDP1 inhibitors. […] The residual TDP2 activity for the best four TDP1 inhibitors, 7g,h and 10a,b, was from 30 to 60%, depending on the tested compound, at a 1 mM concentration of the inhibitor. We tested the ability of compounds 7g,h and 10a,b to inhibit TDP2 activity at 0.2 mM and 0.5 mM concentrations (Figure S26).
The recombinant N-terminally His-tagged TDP2 was expressed in E. coli BL21 (DE3) cells. The plasmid pLATE-31-TDP2 expression vector was constructed as follows. cDNA encoding the TDP2 protein was cloned in the pLATE-31 expression vector using a LICator LIC Cloning and Expression System (Thermo Scientific, Waltham, MA, USA). […]
Oligonucleotide 5′- tyrosine -AAC GTC AGG GTC TTC C- FAM -3′ was synthesized as described above and used for the indication of TDP2 enzyme activity in polyacrylamide gel. […] A Typhoon FLA 9500 phosphorimager (GE Healthcare, Boston, MA, USA) was used for gel scanning and imaging, and the data were analyzed with QuantityOne 4.6.7 software (Bio-Rad Laboratories, Inc., Hercules, CA, USA).

Data set [1] can be described thus: EZ4U colorimetric cytotoxicity test, HeLa. The format is cell-based, human. The following applies: human, HeLa cells; intrinsic cytotoxicity, compound alone, 3 days. The text has this: The low intrinsic cytotoxicity of the additional drug component in the clinically used anticancer cocktails with traditional drugs is very important for treatment. This approach in chemotherapy can reduce the potential resulting toxic load on the body in the case of a combined action of these inhibitors on the activity of several targets. […] The effects of the tested compounds on cell survival are shown on Figure 4 and the CC50 values for three cell lines are shown in Table 1. The intrinsic cytotoxicity of a number of the studied compounds is quite high, namely, they have close IC50 values against the TDP1 and CC50 values on one or several studied cell lines. Most of the compounds generally were more toxic for the HEK293FT and HeLa cell lines than for the HEK293A cell line (Table 1 and Figure 4). The cytotoxicity of the three leader compounds, 7g, 10a, and 7h, was quite high. […] Compound 10b was one of the least toxic among the ten tested compounds.
Cytotoxicity of the compounds was examined against human cell lines HEK293A (human embryonic kidney)—WT, TDP1 deficient (Tdp1-/-), PARP1 deficient (PARP1-/-), and HeLa (cervical cancer) using an EZ4U colorimetric test (Biomedica, Vienna, Austria). The HEK293A cell line was obtained from Thermo Fisher Scientific (Waltham, MA, USA), and the HeLa cell line was obtained from the Russian Cell Culture Collection (RCCC) Institute of Cytology RAS, St. Petersburg, Russia. The cells were grown in DMEM/F12 medium (Gibco, Thermo Fisher Scientific, Waltham, MA, USA), with 1x GlutaMAX (Gibco, Thermo Fisher Scientific, Waltham, MA, USA), 50 IU/mL penicillin, 50 μg/mL streptomycin (MP Biomedicals), and in the presence of 10% fetal bovine serum (Biolot, Saint-Petersburg, Russia) in a 5% CO2 atmosphere. Cells were grown in the presence of 1% DMSO in the control wells. After the formation of a 30–50% monolayer, the tested compounds were added to the medium, and the cell culture was monitored for 3 days. The values were normalized to their own control in each case. At least three independent experiments were carried out. The 50% cytotoxic concentration (CC50) was defined as the compound concentration that reduced the cell viability by 50% when compared to the untreated controls. The compound concentration that caused 50% cell growth inhibition was determined using OriginPro 8.6.0 software (OriginLab, Northampton, MA, USA). The measurements were carried out in three independent experiments.

Each structure is given as a SMILES string.

Broadly, the CC50 is the concentration giving 50% cytotoxicity. A higher CC50 goes with better tolerance by the cells. For `CC(=O)C1=C(O)C=C2Oc3c(C(=O)C[S+]([O-])c4nc5ccccc5s4)c(O)c(C)c(O)c3[C@@]2(C)C1=O` (stereo partly drawn) [10a, (2R)-4-acetyl-10-[2-(1,3-benzothiazole-2-sulfinyl)acetyl]-5,11,13-trihydroxy-2,12-dimethyl-8-oxatricyclo[7.4.0.0^2,7]trideca-1(13),4,6,9,11-pentaen-3-one], the “TDP2 inhibition (in words)” value at TDP2 is on record as “moderately inhibit TDP2”. It took 15 ± 1 µM to reach half-maximal cytotoxicity in data set [1] (CC50 at 3 days).

With `CC(=O)c1c(O)c(C)c(O)c2c1OC1=CC(=O)C(C(C)=O)C(=O)C12C` (stereo not shown) [UA, usnic acid], the “TDP2 inhibition (in words)” value at TDP2 is reported as “did not inhibit TDP2”. In addition, the 50% cytotoxic concentration (CC50) at 3 days in data set [1] was found to be 20 ± 10 µM.

Values taken from PMC8583042, “New Hybrid Compounds Combining Fragments of Usnic Acid and Thioether Are Inhibitors of Human Enzymes TDP1, TDP2 and PARP1” (International Journal of Molecular Sciences, 2021).
